T/C data for 26 compounds are collected here from PubChem BioAssay AID256 (DTP/NCI, 2004).

Structures are written as SMILES. Where “and” joins values, the source holds several entries; their conditions need not be identical. Equal entries are not always repeated. Inconclusive results and toxic doses are left out.

The assay has as its system CD2F1 mice, L1210 leukemia ip, survival T/C. The experiment in a line: NCI In Vivo Anticancer Drug Screen. Data for tumor model L1210 Leukemia (intraperitoneal) in CD2F1 (CDF1) mice. As to conditions: higher = longer survival. The method in brief:
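Each value reflects a quotient of treated over vehicle control outcomes in mice with a transplanted tumor.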

The mark [1] stands for this setting: endpoint: mean survival time, dose: 100.0 mg/kg/injection, schedule: Q01DX009 (ip), vehicle: saline with Tween-80.
Where [2] appears, read: endpoint: mean survival time, dose: 200.0 mg/kg/injection, schedule: Q01DX009 (ip), vehicle: saline with Tween-80.
Setting [3] is: endpoint: mean survival time, dose: 400.0 mg/kg/injection, schedule: Q01DX009 (ip), vehicle: saline with Tween-80.
Where [4] appears, read: endpoint: mean survival time, dose: 100.0 mg/kg/injection, schedule: Q04DX003 (ip), vehicle: saline with Tween-80.
The mark [5] stands for this setting: endpoint: mean survival time, dose: 200.0 mg/kg/injection, schedule: Q04DX003 (ip), vehicle: saline with Tween-80.
Setting [6] is: endpoint: mean survival time, dose: 400.0 mg/kg/injection, schedule: Q04DX003 (ip), vehicle: saline with Tween-80.
Where [7] appears, read: endpoint: mean survival time, dose: 100.0 mg/kg/injection, schedule: Q01DX001 (ip), vehicle: saline with Tween-80.
The mark [8] stands for this setting: endpoint: mean survival time, dose: 200.0 mg/kg/injection, schedule: Q01DX001 (ip), vehicle: saline with Tween-80.
[9] abbreviates: endpoint: mean survival time, dose: 400.0 mg/kg/injection, schedule: Q01DX001 (ip), vehicle: saline with Tween-80.
[10] abbreviates: endpoint: mean survival time, dose: 100.0 mg/kg/injection, schedule: Q01DX009 (ip), vehicle: saline.
The mark [11] stands for this setting: endpoint: mean survival time, dose: 200.0 mg/kg/injection, schedule: Q01DX009 (ip), vehicle: saline.
[12] abbreviates: endpoint: mean survival time, dose: 400.0 mg/kg/injection, schedule: Q01DX009 (ip), vehicle: saline.

In the case of `CCCCCCCC(=O)Nc1ccc(C)cc1C`, the T/C is 91 % of control under setting [1], 98 % of control under setting [2] and 91 % of control under setting [3].
Regarding `O=C1CCC(=O)N1CC(O)COc1ccc(Cl)cc1` (centres undefined), the T/C under setting [4] was 95 % of control, the T/C under setting [5] is 98 % of control and the T/C under setting [6] is 95 % of control.
As to `O=[N+]([O-])c1ccc(C2C3C(c4ccccc4)=NCCCN32)cc1` (centres undefined), the T/C by setting is: under setting [4], 104 % of control; under setting [5], 97 % of control; under setting [6], 97 % of control.
Consider `Nc1nc(N)c(CCCOc2ccc(C(=O)O)cc2)c(N)n1`, for which the T/C is 94 % of control (endpoint: mean survival time, dose: 50.0 mg/kg/injection, schedule: Q01DX009 (ip), vehicle: Klucel (hydroxypropylcellulose) (HPC)); 101 % of control (endpoint: mean survival time, dose: 100.0 mg/kg/injection, schedule: Q01DX009 (ip), vehicle: Klucel (hydroxypropylcellulose) (HPC)); 94 % of control (endpoint: mean survival time, dose: 200.0 mg/kg/injection, schedule: Q01DX009 (ip), vehicle: Klucel (hydroxypropylcellulose) (HPC)).
Take `O=C(NNC(=O)NC1OCC(O)C(O)C1O)Nc1ccccc1` (centres undefined): the T/C runs as follows: under setting [4], 101 % of control; under setting [5], 98 % of control; under setting [6], 98 % of control.
As for `O=C1OC2CCC13CCCCC3C2` (centres undefined), the T/C is 96 % of control under setting [4], 88 % of control under setting [5] and 86 % of control under setting [6].
For the compound `Nc1c(Cl)cccc1Cl` (tested in a mixture with another compound), the T/C reads like this: under setting [7], 89 % of control; under setting [1], 99 % of control; under setting [8], 91 % of control; under setting [2], 98 % of control; under setting [9], 91 % of control; under setting [3], 107 % of control.
Regarding `O=C(O)C(CNC(=O)C(F)(F)F)Cc1ccc([N+](=O)[O-])cc1` (centres undefined), the T/C was 98 % of control and 101 % of control (endpoint: mean survival time, dose: 12.5 mg/kg/injection, schedule: Q01DX009 (ip), vehicle: saline); 98 % of control (endpoint: mean survival time, dose: 25.0 mg/kg/injection, schedule: Q01DX009 (ip), vehicle: saline); 97 % of control and 107 % of control (endpoint: mean survival time, dose: 50.0 mg/kg/injection, schedule: Q01DX009 (ip), vehicle: saline); 103 % of control under setting [10].
On to `CCCCCCCCCCCCCCCCCCSc1ccc(Br)cc1`, for which the T/C reads like this: under setting [7], 92 % of control; under setting [9], 86 % of control.
Turning to `COc1cc(OC)c(NC(=O)Oc2ccc(C(C)(C)C)cc2Br)cc1Cl`, the T/C is 97 % of control (endpoint: mean survival time, dose: 12.5 mg/kg/injection, schedule: Q01DX009 (ip), vehicle: saline with Tween-80); 102 % of control (endpoint: mean survival time, dose: 25.0 mg/kg/injection, schedule: Q01DX009 (ip), vehicle: saline with Tween-80); 94 % of control (endpoint: mean survival time, dose: 50.0 mg/kg/injection, schedule: Q01DX009 (ip), vehicle: saline with Tween-80); 93 % of control under setting [1]; 86 % of control under setting [2].
With `CC(C)=CCC/C(C)=C/CNCCc1c[nH]c2ccccc12`, the T/C is 102 % of control (endpoint: mean survival time, dose: 5.0 mg/kg/injection, schedule: Q01DX009 (ip), vehicle: saline with Tween-80); 98 % of control (endpoint: mean survival time, dose: 10.0 mg/kg/injection, schedule: Q01DX009 (ip), vehicle: saline with Tween-80); 100 % of control (endpoint: mean survival time, dose: 20.0 mg/kg/injection, schedule: Q01DX009 (ip), vehicle: saline with Tween-80).
`Nc1nc(=O)n2ccn(C3OC(CO)C(O)C3O)c2n1` (centres undefined): the T/C (endpoint: mean survival time, dose: 12.5 mg/kg/injection, schedule: Q01DX005 (ip), vehicle: distilled water + Tween-80) was 103 % of control; the T/C (endpoint: mean survival time, dose: 25.0 mg/kg/injection, schedule: Q01DX005 (ip), vehicle: distilled water + Tween-80) is 100 % of control; the T/C (endpoint: mean survival time, dose: 50.0 mg/kg/injection, schedule: Q01DX005 (ip), vehicle: distilled water + Tween-80) was 100 % of control; the T/C (endpoint: mean survival time, dose: 100.0 mg/kg/injection, schedule: Q01DX005 (ip), vehicle: distilled water + Tween-80) is 100 % of control; the T/C (endpoint: mean survival time, dose: 200.0 mg/kg/injection, schedule: Q01DX005 (ip), vehicle: distilled water + Tween-80) is 103 % of control.
For `CN(C)/C=N/c1c(CO)c(-c2ccccc2)nn1-c1ccccc1`, the T/C was 101 % of control under setting [4], 95 % of control under setting [5] and 95 % of control under setting [6].
On to `C(=NCCN=Cc1ccccc1)c1ccccc1`, for which the T/C reads like this: under setting [1], 97 % of control; under setting [2], 97 % of control; under setting [3], 96 % of control.
Consider `CCOC(=O)Nc1cc(NCCc2ccccc2)c([N+](=O)[O-])c(N)n1`, for which the T/C (endpoint: mean survival time, dose: 100.0 mg/kg/injection, schedule: Q01DX001 (ip), vehicle: Klucel (hydroxypropylcellulose) (HPC)) is 91 % of control; the T/C (endpoint: mean survival time, dose: 200.0 mg/kg/injection, schedule: Q01DX001 (ip), vehicle: Klucel (hydroxypropylcellulose) (HPC)) was 94 % of control; the T/C (endpoint: mean survival time, dose: 400.0 mg/kg/injection, schedule: Q01DX001 (ip), vehicle: Klucel (hydroxypropylcellulose) (HPC)) is 86 % of control.
Consider `C=C(C)C(=O)OCCN(C)C` (tested in a mixture with another compound), for which the T/C reads like this: under setting [1], 97 % of control; under setting [4], 100 % of control; under setting [2], 106 % of control; under setting [5], 122 % of control; under setting [6], 92 % of control.
Regarding `Cc1ccc(S(=O)(=O)NC(=O)C(=[N+]=[N-])c2ccc([N+](=O)[O-])cc2)cc1`, the T/C was 100 % of control (endpoint: median survival time, dose: 25.0 mg/kg/injection, schedule: Q04DX002 (ip), vehicle: saline with Tween-80); 90 % of control (endpoint: median survival time, dose: 50.0 mg/kg/injection, schedule: Q04DX002 (ip), vehicle: saline with Tween-80); 90 % of control (endpoint: median survival time, dose: 100.0 mg/kg/injection, schedule: Q04DX002 (ip), vehicle: saline with Tween-80); 90 % of control (endpoint: median survival time, dose: 200.0 mg/kg/injection, schedule: Q04DX002 (ip), vehicle: saline with Tween-80).
Consider `C=CCC1(CO)CCCCC1O` (centres undefined), for which the T/C (endpoint: mean survival time, dose: 100.0 mg/kg/injection, schedule: Q04DX002 (ip), vehicle: saline with Tween-80) is 96 % of control; the T/C (endpoint: mean survival time, dose: 200.0 mg/kg/injection, schedule: Q04DX002 (ip), vehicle: saline with Tween-80) is 100 % of control; the T/C (endpoint: mean survival time, dose: 400.0 mg/kg/injection, schedule: Q04DX002 (ip), vehicle: saline with Tween-80) is 92 % of control.
Regarding `Nc1ccc(OCc2ccc(C(=O)Nc3cccc(S(=O)(=O)F)c3)cc2)c(Cl)c1`, the T/C is, setting by setting: (endpoint: mean survival time, dose: 100.0 mg/kg/injection, schedule: Q01DX009 (ip), vehicle: saline sonified) 91 % of control; (endpoint: mean survival time, dose: 200.0 mg/kg/injection, schedule: Q01DX009 (ip), vehicle: saline sonified) 95 % of control; (endpoint: mean survival time, dose: 400.0 mg/kg/injection, schedule: Q01DX009 (ip), vehicle: saline sonified) 93 % of control.
For `CCOC(=O)C(O)(C(=O)OCC)c1ccc(C)cc1`, the T/C by setting is: under setting [1], 97 % of control; under setting [4], 102 % of control; under setting [2], 97 % of control; under setting [5], 100 % of control; under setting [3], 97 % of control; under setting [6], 100 % of control.
In the case of `Cc1cc(N)c(S(N)(=O)=O)c([N+](=O)[O-])c1`, the T/C runs as follows: under setting [7], 100 % of control; under setting [8], 97 % of control; under setting [9], 94 % of control.
With `C=CCN(CC=C)P(=O)(N(CC=C)CC=C)N1CC1`, the T/C is, setting by setting: (endpoint: mean survival time, dose: 11.0 mg/kg/injection, schedule: Q01DX015 (ip), vehicle: saline) 151 % of control; (endpoint: mean survival time, dose: 17.0 mg/kg/injection, schedule: Q01DX015 (ip), vehicle: saline) 114 % of control.
Take `CCC(CO)(CO)[N+](=O)[O-]`: the T/C by setting is: under setting [10], 100 % of control; under setting [11], 100 % of control; under setting [12], 94 % of control.
With `O=C(c1ccccc1)C1CC1c1ccccc1` (centres undefined), the T/C was 101 % of control under setting [10], 90 % of control under setting [11] and 94 % of control under setting [12].
Turning to `C1=[N+](c2ccccc2)CCN1c1ccccc1`, the T/C (endpoint: mean survival time, dose: 75.0 mg/kg/injection, schedule: Q01DX001 (ip), vehicle: saline) is 95 % of control and the T/C (endpoint: mean survival time, dose: 150.0 mg/kg/injection, schedule: Q01DX001 (ip), vehicle: saline) is 98 % of control.
In the case of `CC1(O)CSC(C)(O)CS1` (centres undefined), the T/C runs as follows: (endpoint: mean survival time, dose: 6.25 mg/kg/injection, schedule: Q04DX002 (ip), vehicle: saline with Tween-80) 104 % of control; (endpoint: mean survival time, dose: 12.5 mg/kg/injection, schedule: Q04DX002 (ip), vehicle: saline with Tween-80) 100 % of control; (endpoint: mean survival time, dose: 25.0 mg/kg/injection, schedule: Q04DX002 (ip), vehicle: saline with Tween-80) 104 % of control.
